Assay results published in PMC10838953.

Tests used:
LIMK1 = LIMK1 (Homo sapiens, UniProt P53667); assay: biochemical; details: read-out: %Ctrl @ 2000nM
KIT(V559D,T670I) = KIT(V559D,T670I) (Homo sapiens, UniProt P10721, T670I/V559D); assay: biochemical; details: read-out: %Ctrl @ 2000nM
[1] = molecular target: TYK2(JH2domain-pseudokinase) (Homo sapiens, UniProt P29597); assay: biochemical; details: read-out: %Ctrl @ 2000nM
PAK6 = PAK6 (Homo sapiens, UniProt Q9NQU5); assay: biochemical; details: read-out: %Ctrl @ 2000nM
RIPK5 = RIPK5 (Homo sapiens, UniProt Q6XUX3); assay: biochemical; details: read-out: %Ctrl @ 2000nM
DYRK1B = DYRK1B (Homo sapiens, UniProt Q9Y463); assay: biochemical; details: read-out: %Ctrl @ 2000nM
CAMK1D = CAMK1D (Homo sapiens, UniProt Q8IU85); assay: biochemical; details: read-out: %Ctrl @ 2000nM
LRRK2 = LRRK2 (Homo sapiens, UniProt Q5S007); assay: biochemical; details: read-out: %Ctrl @ 2000nM
MAP4K3 = MAP4K3 (Homo sapiens, UniProt Q8IVH8); assay: biochemical; details: read-out: %Ctrl @ 2000nM
CIT = CIT (Homo sapiens, UniProt O14578); assay: biochemical; details: read-out: %Ctrl @ 2000nM
ADCK4 = ADCK4 (Homo sapiens, UniProt Q96D53); assay: biochemical; details: read-out: %Ctrl @ 2000nM
survivin = details: 786-O cells; 2.5-15 μM; 48 h
CAMK2A = CAMK2A (Homo sapiens, UniProt Q9UQM7); assay: biochemical; details: read-out: %Ctrl @ 2000nM
MARK2 = MARK2 (Homo sapiens, UniProt Q7KZI7); assay: biochemical; details: read-out: %Ctrl @ 2000nM
HCK = HCK (Homo sapiens, UniProt P08631); assay: biochemical; details: read-out: %Ctrl @ 2000nM
[2] = molecular target: ABL1(H396P)-nonphosphorylated (Homo sapiens, UniProt P00519, H396P); assay: biochemical; details: read-out: %Ctrl @ 2000nM
NEK1 = NEK1 (Homo sapiens, UniProt Q96PY6); assay: biochemical; details: read-out: %Ctrl @ 2000nM
PIK3CA(E545A) = PIK3CA(E545A) (Homo sapiens, UniProt P42336, E545A); assay: biochemical; details: read-out: %Ctrl @ 2000nM
NIM1 = NIM1 (Homo sapiens, UniProt Q8IY84); assay: biochemical; details: read-out: %Ctrl @ 2000nM
PLK4 = PLK4 (Homo sapiens, UniProt O00444); assay: biochemical; details: read-out: %Ctrl @ 2000nM
STAT3 (S727) = details: 786-O cells; 48 h
FGFR1 = FGFR1 (Homo sapiens, UniProt P11362); assay: biochemical; details: read-out: %Ctrl @ 2000nM
KIT(L576P) = KIT(L576P) (Homo sapiens, UniProt P10721, L576P); assay: biochemical; details: read-out: %Ctrl @ 2000nM
MERTK = MERTK (Homo sapiens, UniProt Q12866); assay: biochemical; details: read-out: %Ctrl @ 2000nM
RIOK1 = RIOK1 (Homo sapiens, UniProt Q9BRS2); assay: biochemical; details: read-out: %Ctrl @ 2000nM
PCTK2 = PCTK2 (Homo sapiens, UniProt Q00537); assay: biochemical; details: read-out: %Ctrl @ 2000nM
[3] = molecular target: ABL1(F317I)-nonphosphorylated (Homo sapiens, UniProt P00519, F317I); assay: biochemical; details: read-out: %Ctrl @ 2000nM
PLK2 = PLK2 (Homo sapiens, UniProt Q9NYY3); assay: biochemical; details: read-out: %Ctrl @ 2000nM
GRK3 = GRK3 (Homo sapiens, UniProt P35626); assay: biochemical; details: read-out: %Ctrl @ 2000nM
CDC2L1 = CDC2L1 (Homo sapiens, UniProt P21127); assay: biochemical; details: read-out: %Ctrl @ 2000nM
MLK3 = MLK3 (Homo sapiens, UniProt Q16584); assay: biochemical; details: read-out: %Ctrl @ 2000nM
ABL2 = ABL2 (Homo sapiens, UniProt P42684); assay: biochemical; details: read-out: %Ctrl @ 2000nM
EGFR(G719S) = EGFR(G719S) (Homo sapiens, UniProt P00533, G719S); assay: biochemical; details: read-out: %Ctrl @ 2000nM
MET(M1250T) = MET(M1250T) (Homo sapiens, UniProt P08581, M1250T); assay: biochemical; details: read-out: %Ctrl @ 2000nM
DDR1 = DDR1 (Homo sapiens, UniProt Q08345); assay: biochemical; details: read-out: %Ctrl @ 2000nM
PRKCQ = PRKCQ (Homo sapiens, UniProt Q04759); assay: biochemical; details: read-out: %Ctrl @ 2000nM
NDR2 = NDR2 (Homo sapiens, UniProt Q9Y2H1); assay: biochemical; details: read-out: %Ctrl @ 2000nM
RIOK2 = RIOK2 (Homo sapiens, UniProt Q9BVS4); assay: biochemical; details: read-out: %Ctrl @ 2000nM
VRK2 = VRK2 (Homo sapiens, UniProt Q86Y07); assay: biochemical; details: read-out: %Ctrl @ 2000nM
[4] = molecular target: RSK1(Kin.Dom.1-N-terminal) (Homo sapiens, UniProt Q15418); assay: biochemical; details: read-out: %Ctrl @ 2000nM
[5] = molecular target: RSK4(Kin.Dom.1-N-terminal) (Homo sapiens, UniProt Q9UK32); assay: biochemical; details: read-out: %Ctrl @ 2000nM

Sequence of TYK2(JH2domain-pseudokinase) (P29597 589-875 limits assumed): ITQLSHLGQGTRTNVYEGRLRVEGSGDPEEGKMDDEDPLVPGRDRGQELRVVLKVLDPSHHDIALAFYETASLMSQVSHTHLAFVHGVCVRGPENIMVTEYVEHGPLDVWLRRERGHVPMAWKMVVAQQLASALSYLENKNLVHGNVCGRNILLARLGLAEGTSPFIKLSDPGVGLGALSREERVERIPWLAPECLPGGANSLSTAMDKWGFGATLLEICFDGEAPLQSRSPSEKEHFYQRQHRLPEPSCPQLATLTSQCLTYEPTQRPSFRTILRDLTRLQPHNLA
Sequence of MAP4K3 (Q8IVH8 whole entry): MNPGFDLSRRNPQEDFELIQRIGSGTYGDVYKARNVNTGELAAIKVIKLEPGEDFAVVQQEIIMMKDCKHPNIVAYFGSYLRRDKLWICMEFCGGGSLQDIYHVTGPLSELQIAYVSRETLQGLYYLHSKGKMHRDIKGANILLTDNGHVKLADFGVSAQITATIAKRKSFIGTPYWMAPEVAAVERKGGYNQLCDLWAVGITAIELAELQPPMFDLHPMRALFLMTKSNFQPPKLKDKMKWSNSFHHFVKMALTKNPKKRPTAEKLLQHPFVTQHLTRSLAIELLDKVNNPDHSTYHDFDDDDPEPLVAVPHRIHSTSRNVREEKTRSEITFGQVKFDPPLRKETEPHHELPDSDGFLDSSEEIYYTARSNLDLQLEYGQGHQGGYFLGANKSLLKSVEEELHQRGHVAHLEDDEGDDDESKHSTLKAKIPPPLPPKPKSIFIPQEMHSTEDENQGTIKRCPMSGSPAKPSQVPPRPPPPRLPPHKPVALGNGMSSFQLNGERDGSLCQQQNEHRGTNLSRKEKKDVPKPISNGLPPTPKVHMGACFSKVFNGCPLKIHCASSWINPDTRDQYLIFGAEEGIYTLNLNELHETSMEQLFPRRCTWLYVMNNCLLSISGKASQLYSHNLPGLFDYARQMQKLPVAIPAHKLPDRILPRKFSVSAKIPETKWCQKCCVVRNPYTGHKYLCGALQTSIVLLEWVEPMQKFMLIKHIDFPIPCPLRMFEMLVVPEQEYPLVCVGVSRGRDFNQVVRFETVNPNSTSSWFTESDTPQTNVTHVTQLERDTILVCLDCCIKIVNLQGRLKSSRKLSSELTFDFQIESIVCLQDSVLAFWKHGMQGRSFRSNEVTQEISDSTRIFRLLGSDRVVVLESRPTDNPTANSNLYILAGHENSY
Sequence of DYRK1B (Q9Y463 whole entry): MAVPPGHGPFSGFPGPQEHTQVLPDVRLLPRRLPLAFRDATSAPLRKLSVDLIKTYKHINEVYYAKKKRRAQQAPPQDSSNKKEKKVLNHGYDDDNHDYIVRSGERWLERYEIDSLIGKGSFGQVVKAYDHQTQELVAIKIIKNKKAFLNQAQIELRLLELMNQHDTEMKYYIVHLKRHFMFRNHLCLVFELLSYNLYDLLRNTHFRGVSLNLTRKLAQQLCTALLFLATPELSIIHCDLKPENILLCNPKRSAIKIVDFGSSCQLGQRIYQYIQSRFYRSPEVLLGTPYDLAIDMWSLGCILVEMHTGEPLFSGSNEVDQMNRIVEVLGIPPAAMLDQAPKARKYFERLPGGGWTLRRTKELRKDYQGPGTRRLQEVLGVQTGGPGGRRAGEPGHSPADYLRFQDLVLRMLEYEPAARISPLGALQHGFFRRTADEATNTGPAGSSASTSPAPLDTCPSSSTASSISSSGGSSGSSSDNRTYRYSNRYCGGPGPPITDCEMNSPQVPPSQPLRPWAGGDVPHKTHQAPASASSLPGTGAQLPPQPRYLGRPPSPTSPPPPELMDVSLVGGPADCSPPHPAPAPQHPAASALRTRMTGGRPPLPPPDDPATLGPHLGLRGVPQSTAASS
Sequence of ADCK4 (Q96D53 whole entry): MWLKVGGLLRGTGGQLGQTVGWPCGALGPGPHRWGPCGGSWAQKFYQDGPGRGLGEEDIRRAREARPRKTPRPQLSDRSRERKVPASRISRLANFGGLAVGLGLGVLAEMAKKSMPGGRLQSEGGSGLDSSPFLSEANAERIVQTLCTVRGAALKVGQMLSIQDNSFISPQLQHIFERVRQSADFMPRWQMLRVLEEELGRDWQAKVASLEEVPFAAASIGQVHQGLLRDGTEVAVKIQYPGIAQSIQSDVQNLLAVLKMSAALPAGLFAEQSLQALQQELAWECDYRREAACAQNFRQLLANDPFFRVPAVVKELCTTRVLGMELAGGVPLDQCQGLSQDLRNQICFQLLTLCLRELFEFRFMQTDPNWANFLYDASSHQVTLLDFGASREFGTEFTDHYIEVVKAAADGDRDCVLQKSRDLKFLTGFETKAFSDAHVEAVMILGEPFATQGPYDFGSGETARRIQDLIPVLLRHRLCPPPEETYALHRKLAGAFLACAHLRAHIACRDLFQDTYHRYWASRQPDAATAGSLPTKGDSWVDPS
Sequence of MET(M1250T) (P08581 25-1390 M1250T): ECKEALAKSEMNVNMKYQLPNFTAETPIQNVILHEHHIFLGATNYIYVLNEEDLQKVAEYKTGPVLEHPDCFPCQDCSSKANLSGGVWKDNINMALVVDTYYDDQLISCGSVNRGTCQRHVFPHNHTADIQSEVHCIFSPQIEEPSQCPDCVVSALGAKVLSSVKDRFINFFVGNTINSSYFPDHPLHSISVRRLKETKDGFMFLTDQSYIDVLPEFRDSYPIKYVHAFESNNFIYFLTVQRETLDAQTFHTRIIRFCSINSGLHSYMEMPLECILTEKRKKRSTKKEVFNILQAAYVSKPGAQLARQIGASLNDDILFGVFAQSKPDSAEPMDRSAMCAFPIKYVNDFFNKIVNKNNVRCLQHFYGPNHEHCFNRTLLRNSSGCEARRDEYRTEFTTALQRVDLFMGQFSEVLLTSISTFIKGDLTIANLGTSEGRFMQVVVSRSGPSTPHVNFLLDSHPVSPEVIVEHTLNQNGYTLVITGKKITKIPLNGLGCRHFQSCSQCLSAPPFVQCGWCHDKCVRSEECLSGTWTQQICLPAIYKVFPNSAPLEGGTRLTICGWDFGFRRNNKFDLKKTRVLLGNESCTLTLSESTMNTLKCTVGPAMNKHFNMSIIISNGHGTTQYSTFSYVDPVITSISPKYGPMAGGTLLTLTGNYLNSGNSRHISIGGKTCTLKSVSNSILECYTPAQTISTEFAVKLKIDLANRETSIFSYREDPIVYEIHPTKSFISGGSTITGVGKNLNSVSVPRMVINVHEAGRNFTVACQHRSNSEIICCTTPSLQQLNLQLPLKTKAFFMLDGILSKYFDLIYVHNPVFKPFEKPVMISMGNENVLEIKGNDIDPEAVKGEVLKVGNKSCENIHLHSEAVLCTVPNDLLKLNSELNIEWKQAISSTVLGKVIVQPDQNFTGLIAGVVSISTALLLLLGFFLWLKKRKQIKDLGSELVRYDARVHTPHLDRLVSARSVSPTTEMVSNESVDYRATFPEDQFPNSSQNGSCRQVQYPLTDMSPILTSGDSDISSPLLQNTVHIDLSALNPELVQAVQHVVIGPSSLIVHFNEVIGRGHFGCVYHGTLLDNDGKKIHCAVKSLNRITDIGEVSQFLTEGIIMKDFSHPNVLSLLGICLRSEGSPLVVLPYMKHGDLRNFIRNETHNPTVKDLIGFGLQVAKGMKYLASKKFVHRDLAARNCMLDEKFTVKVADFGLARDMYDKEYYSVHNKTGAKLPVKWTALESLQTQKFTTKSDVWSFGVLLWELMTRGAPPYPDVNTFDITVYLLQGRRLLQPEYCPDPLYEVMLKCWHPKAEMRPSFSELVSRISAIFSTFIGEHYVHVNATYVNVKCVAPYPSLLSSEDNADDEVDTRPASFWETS
Sequence of MARK2 (Q7KZI7 whole entry): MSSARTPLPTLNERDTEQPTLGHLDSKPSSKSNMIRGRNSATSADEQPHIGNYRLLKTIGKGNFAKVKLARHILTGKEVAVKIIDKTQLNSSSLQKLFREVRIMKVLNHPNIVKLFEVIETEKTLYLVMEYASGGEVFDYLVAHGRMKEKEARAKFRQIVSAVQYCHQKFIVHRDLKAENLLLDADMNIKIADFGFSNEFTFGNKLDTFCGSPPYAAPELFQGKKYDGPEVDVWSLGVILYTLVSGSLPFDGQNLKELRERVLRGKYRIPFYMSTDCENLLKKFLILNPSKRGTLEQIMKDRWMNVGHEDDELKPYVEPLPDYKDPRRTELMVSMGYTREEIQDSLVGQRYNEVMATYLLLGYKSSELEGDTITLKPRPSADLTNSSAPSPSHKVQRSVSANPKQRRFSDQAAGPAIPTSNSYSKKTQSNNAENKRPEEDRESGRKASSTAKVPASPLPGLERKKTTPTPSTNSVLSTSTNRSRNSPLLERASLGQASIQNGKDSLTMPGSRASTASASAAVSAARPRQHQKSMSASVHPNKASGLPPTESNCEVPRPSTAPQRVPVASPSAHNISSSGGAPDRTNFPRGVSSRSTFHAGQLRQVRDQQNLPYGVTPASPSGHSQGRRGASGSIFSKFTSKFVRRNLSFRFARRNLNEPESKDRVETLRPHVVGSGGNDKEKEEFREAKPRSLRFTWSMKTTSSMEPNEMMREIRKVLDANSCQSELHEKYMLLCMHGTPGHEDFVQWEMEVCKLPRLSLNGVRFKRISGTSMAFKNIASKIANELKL
Sequence of NIM1 (Q8IY84 whole entry): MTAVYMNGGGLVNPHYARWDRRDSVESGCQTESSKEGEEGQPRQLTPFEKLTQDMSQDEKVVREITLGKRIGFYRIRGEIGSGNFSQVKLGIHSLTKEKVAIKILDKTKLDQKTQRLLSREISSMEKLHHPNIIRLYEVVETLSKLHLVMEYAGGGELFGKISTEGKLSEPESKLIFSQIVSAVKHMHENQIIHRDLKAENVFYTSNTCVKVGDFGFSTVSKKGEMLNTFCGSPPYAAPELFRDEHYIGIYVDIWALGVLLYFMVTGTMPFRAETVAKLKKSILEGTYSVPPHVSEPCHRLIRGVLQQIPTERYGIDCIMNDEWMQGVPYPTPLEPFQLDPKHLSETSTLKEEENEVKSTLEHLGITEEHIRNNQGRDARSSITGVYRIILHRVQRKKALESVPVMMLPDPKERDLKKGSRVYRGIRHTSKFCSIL

Work on `CC(C)COC(=O)c1[nH]c2ccc(F)cc2c1-c1cn(CC2CCN(CCNS(=O)(=O)c3ccc(CC(C)C)cc3)CC2)nn1` [AB668, isobutyl 5-fluoro-3-(1-((1-(2-((4-isobutylphenyl)sulfonamido)ethyl)piperidin-4-yl)methyl)-1H-1,2,3-triazol-4-yl)-1H-indole-2-carboxylate] yielded a remaining activity at 2 µM (LIMK1) of 100%, a remaining activity at 2 µM (KIT(V559D,T670I)) of 93% and a remaining activity at 2 µM [1] of 100%. For the same compound, the remaining activity at 2 µM (PAK6) was 90%, the “%Ctrl @ 2000nM” value (FLT3(ITD,D835V)) was 77% and the remaining activity at 2 µM (RIPK5) was 95%. It also gave a remaining activity at 2 µM (DYRK1B) of 83%, a remaining activity at 2 µM (CAMK1D) of 96% and a remaining activity at 2 µM (LRRK2) of 65%. It also gave a remaining activity at 2 µM (MAP4K3) of 82%, a remaining activity at 2 µM (CIT) of 88% and a remaining activity at 2 µM (ADCK4) of 80%. The expression of survivin (survivin) was “reduced the expression of survivin”, the remaining activity at 2 µM (CAMK2A) was 96% and the remaining activity at 2 µM (MARK2) was 81%. It also gave a remaining activity at 2 µM (HCK) of 96%, a remaining activity at 2 µM [2] of 97% and a remaining activity at 2 µM (NEK1) of 73%. The remaining activity at 2 µM (PIK3CA(E545A)) was 100%, the remaining activity at 2 µM (NIM1) was 84% and the remaining activity at 2 µM (PLK4) was 94%. For the same compound, the “activated forms of STAT3” value (STAT3 (S727)) was “dose-dependent inhibition”, the remaining activity at 2 µM (FGFR1) was 81% and the remaining activity at 2 µM (KIT(L576P)) was 91%. The remaining activity at 2 µM (MERTK) was 96%, the remaining activity at 2 µM (RIOK1) was 80% and the remaining activity at 2 µM (PCTK2) was 96%. The remaining activity at 2 µM [3] was 79%, the remaining activity at 2 µM (PLK2) was 87% and the remaining activity at 2 µM (GRK3) was 89%. It also gave a remaining activity at 2 µM (CDC2L1) of 90%, a remaining activity at 2 µM (MLK3) of 99% and a remaining activity at 2 µM (ABL2) of 94%. It also gave a remaining activity at 2 µM (EGFR(G719S)) of 68%, a remaining activity at 2 µM (MET(M1250T)) of 90% and a remaining activity at 2 µM (DDR1) of 96%. It also gave a remaining activity at 2 µM (PRKCQ) of 87%, a remaining activity at 2 µM (NDR2) of 100% and a remaining activity at 2 µM (RIOK2) of 73%. It also gave a remaining activity at 2 µM (VRK2) of 78%, a remaining activity at 2 µM [4] of 100% and a remaining activity at 2 µM [5] of 88%.
